Data from patent publication US7119073B2, “Peptides and their use as inhibitors of hepatitis C virus ns3 protease” (Istituto Di Ricerche Di Biologia Molecolare P. Angeletti SpA, priority 2001, dated 2006).
Read-outs that look alike come from different tables or passages of the source. Where a SMILES comes first, the peptide text is derived from it. [ ]: non-standard residue; d: D form. The star is where a group is joined. Dip = N[C@H](C(=O)O)C(c1ccccc1)c1ccccc1; Abu(4,4-F2) = N[C@@H](CC(F)F)C(=O)O; Cha = N[C@@H](CC1CCCCC1)C(=O)O; X1 = O=C(O)c1ccc(CCN*)cc1

How the values were obtained:
[1] = target: T1, full length NS3 protein noncovalently complexed with the full-length NS4A cofactor protein (NS3/NS4A complex) (Hepatitis C virus genotype 1b, UniProt P26663); assay: Full-length NS3-NS4A heterodimer protein assay (Assay A); format: biochemical, hepatitis C virus (HCV)
T1 construct: full length NS3 protein spanning residues 1027–1657 of the HCV polyprotein
Procedure: Full-Length NS3-NS4A Heterodimer Protein Assay (Assay A)
(Gallinari, P., Paolini, C., Brennan, D., Nardi, C., Steinkühler, C. and De Francesco, R. Modulation of hepatitis C virus NS3 protease and helicase activities through the interaction with NS4A. Biochemistry 38, 5620–5632, 1999)
In this assay the full length NS3 protein spanning residues 1027–1657 of the HCV polyprotein, noncovalently complexed with the full-length NS4A cofactor protein (residues 1658–1711) was used. Assays were performed in 60 μl of a buffer containing 50 mM Hepes pH 7.5, 0.15 M NaCl, 0.1% (v/v) Triton X-100, 15% (v/v) glycerol, 10 mM DTT, 2 nM NS3/NS4A complex. To this assay mix 10 μM (final concentration) of a peptide substrate corresponding to the NS5AB cleavage site and having the sequence of the NS5A-NS5B peptide, were added. Incubation times at 23° C. were adjusted to obtain <10% conversion. Reactions were stopped by the addition of 40 μl of 1% TFA. Cleavage was determined by HPLC using a Merck-Hitachi chromatograph equipped with an autosampler. 80 μl samples were injected on a Lichrospher C18 reversed phase cartridge column (4×74 mm, 5 μm, Merck) and fragments were separated using a 10–40% acetonitrile gradient at 5%/min using a flow rate of 2.5 ml/min. Peak detection was done by monitoring both the absorbance at 220 nm and tryptophan fluorescence (λex=280 nm, λem=350 nm). Cleavage products were quantitated by integration of chromatograms with respect to appropriate standards. Kinetic parameters were calculated from nonlinear least-squares fit of initial rates as a function of substrate concentration with the help of a Kaleidagraph software, assuming Michaelis-Menten kinetics.
Ki values of peptide inhibitors were calculated from substrate titration experiments performed in the presence of increasing amounts of inhibitor. Experimental data sets were simultaneously fitted to eg.1 using a multicurve fit macro with the help of a Sigmaplot software: V=(VmaxS)/(Km([…])+S); (eq.1) Alternatively, Ki values were derived from IC50 values, calculated using a four-parameter logistic function, according to eq.2: IC50=(1+S/Km)Ki (eq.2)

[2] = target: T2, NS3 protease domain complexed to a modified form of the NS4A peptide (Pep4AK) (Hepatitis C virus genotype 1b, UniProt P26663); assay: HCV NS3 protease domain/NS4A cofactor peptide assay (Assay B); format: biochemical; conditions: NS3 protease domain/Pep4AK
T2 construct: NS3 protease domain (residues 1027–1206 of the HCV polyprotein)

[3] = Table 1, 4AB peptide substrate, read-out: Assay B

T2 sequence (P26663 1027-1206, other chains not shown): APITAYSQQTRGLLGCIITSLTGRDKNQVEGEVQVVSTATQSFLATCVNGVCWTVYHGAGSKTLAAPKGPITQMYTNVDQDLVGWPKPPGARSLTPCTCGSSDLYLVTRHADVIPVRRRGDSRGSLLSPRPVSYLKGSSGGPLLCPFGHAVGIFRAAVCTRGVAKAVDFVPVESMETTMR
T1 sequence (P26663 1027-1657): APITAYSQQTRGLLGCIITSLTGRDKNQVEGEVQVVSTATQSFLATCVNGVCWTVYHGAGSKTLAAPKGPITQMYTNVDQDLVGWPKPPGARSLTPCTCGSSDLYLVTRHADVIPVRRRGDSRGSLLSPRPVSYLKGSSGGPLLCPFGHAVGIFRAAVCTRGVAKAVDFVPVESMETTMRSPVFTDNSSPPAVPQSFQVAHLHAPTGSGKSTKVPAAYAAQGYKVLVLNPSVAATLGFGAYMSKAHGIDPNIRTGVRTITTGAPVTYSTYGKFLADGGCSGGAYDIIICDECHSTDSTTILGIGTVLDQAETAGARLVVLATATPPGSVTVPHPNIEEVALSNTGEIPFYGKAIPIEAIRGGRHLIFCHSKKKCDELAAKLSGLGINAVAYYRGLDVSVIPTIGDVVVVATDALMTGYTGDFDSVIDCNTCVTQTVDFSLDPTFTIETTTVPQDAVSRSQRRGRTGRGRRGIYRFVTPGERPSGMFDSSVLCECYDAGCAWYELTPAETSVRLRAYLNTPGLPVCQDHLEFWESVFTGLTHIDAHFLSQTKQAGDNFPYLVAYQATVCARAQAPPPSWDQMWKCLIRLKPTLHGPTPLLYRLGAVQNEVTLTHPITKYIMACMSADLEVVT
T1 sequence (P26663 1658-1711): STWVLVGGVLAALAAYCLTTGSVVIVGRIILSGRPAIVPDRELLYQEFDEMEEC

CC(C)COC(=O)NC(CCC(=O)O)C(=O)NC(CC(C)C)C(=O)NC(CS)C(=O)NCCc1ccc(CC(=O)O)cc1 (stereo not drawn) [Compound 154]
IC50 [1]: < 100 µM
IC50 [2, 3]: < 10 µM

CC(C)COC(=O)NC(CCC(=O)O)C(=O)NC(CC(C)C)C(=O)NC(CS)C(=O)NCCc1ccc(CCC(=O)O)cc1 (stereo not drawn) [Compound 156]
IC50 [1]: < 100 µM
IC50 [2, 3]: < 10 µM

CC(C)COC(=O)NC(CCC(=O)O)C(=O)NC(CC(C)C)C(=O)NC(CS)C(=O)NCCc1c(Cl)cccc1Cl (stereo not drawn) [Compound 164]
IC50 [1]: < 100 µM
IC50 [2, 3]: < 10 µM

COc1ccc(Br)cc1CCNC(=O)C(CS)NC(=O)C(CC(C)C)NC(=O)C(CCC(=O)O)NC(=O)OCC(C)C (stereo not drawn) [Compound 173]
IC50 [1]: < 100 µM
IC50 [2, 3]: < 10 µM

COC(=O)c1ccc(CCNC(=O)[C@H](CS)NC(=O)[C@H](CC(C)C)NC(=O)[C@H](CCC(=O)O)NC(=O)OCC(C)C)c(Cl)c1 [Compound 177]
IC50 [1]: < 100 µM
IC50 [2, 3]: < 10 µM

CC(C)COC(=O)N[C@@H](CCC(=O)O)C(=O)N[C@@H](CC(C)C)C(=O)N[C@@H](CS)C(=O)NCCc1ccc(C(=O)O)cc1Cl [Compound 178]
IC50 [1]: < 10 µM
IC50 [2, 3]: < 1 µM

CC(C)COC(=O)NC(CCC(=O)O)C(=O)NC(CC(C)C)C(=O)NC(CC(F)F)C(=O)NCCc1ccc(C(=O)O)cc1Cl (stereo not drawn) [Compound 180]
IC50 ([1]; Table 1, full-length NS3/NS4A, NS5A-NS5B peptide substrate, read-out: Assay A): < 10 µM
IC50 ([2]; Assay B, Table 1, 4AB peptide substrate): < 1 µM

CC(C)C[C@H](NC(=O)[C@H](CCC(=O)O)NS(=O)(=O)c1cccc2ccccc12)C(=O)N[C@@H](CS)C(=O)NCCc1ccccc1Cl [Compound 252]
IC50 [1]: < 10 µM
IC50 ([2]; Assay B, Table 2): < 10 µM

CC(=O)N[C@@H](CC(=O)O)C(=O)N[C@@H](CCC(=O)O)C(=O)N[C@H](C(=O)N[C@@H](CCC(=O)O)C(=O)N[C@@H](CC1CCCCC1)C(=O)N[C@@H](CC(F)F)C(=O)NCCc1ccc(C(=O)O)cc1)C(c1ccccc1)c1ccccc1 [Compound 321] (Ac-DE[Dip]E[Cha][Abu(4,4-F2)]-X1)
IC50 ([1]; Table 3, full-length NS3/NS4A, read-out: Assay A): < 1 µM
IC50 ([2]; Assay B, Table 3): < 1 µM
